Source: patent US20040006784A1, “Methods and compositions for producing plants and microorganisms that express feedback insensitive threonine dehydratase/deaminase” (priority 1997, published 2004)

How the values were obtained:
[1] = biological target: T1, threonine dehydratase/deaminase (TD) (Arabidopsis thaliana, UniProt Q9ZSS6, R499C/R544H); details: extracts from GM11b (omr1/omr1) plants compared with wild type plants; Mourad and King 1995; cited from earlier work
T1 construct: from tissue; host or cells: extracts of Arabidopsis thaliana GM11b (omr1/omr1) plants
T1 sequence (Q9ZSS6 92-592 R499C/R544H): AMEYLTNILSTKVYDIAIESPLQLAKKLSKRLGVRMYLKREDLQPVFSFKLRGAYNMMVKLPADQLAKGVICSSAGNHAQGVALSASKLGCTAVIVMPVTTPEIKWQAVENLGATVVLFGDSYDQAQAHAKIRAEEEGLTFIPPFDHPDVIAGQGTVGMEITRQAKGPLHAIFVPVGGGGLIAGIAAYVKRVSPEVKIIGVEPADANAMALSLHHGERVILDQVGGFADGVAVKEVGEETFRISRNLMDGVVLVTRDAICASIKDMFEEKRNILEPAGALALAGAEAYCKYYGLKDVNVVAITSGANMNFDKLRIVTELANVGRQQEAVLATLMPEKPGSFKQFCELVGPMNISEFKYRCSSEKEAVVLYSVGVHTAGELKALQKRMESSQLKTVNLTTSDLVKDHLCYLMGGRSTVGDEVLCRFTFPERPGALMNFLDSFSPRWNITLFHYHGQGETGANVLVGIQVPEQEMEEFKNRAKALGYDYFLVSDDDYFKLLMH

[2] = test system: T2 seedlings of omr1 transgenic Arabidopsis; assay: T2 seedlings of omr1 transformants on L-O-methylthreonine agar medium; type: in vivo, Arabidopsis thaliana; details: 0.2 mM L-O-methylthreonine agar medium, 50 T2 seeds/transformant, each of 5 plates
Procedure: The T2 seed was harvested from each of the 5 positive T1 transformants and 50 T2 seeds/transformant were planted in a separate petri plate containing 0.2 mM L-O-methylthreonine agar medium. […] This slightly truncated precursor mutant TD was able to translocate to the chloroplast and confer upon transgenic plants resistance to OMT.

[3] = test system: Arabidopsis thaliana Columbia wild type; details: agar medium; Mourad and King, 1995; cited from earlier work
[4] = test system: Arabidopsis thaliana Columbia wild type; assay: Germination and growth of seedlings in agar medium supplemented with L-O-methylthreonine; type: in vivo; details: 0.2 mM L-O-methylthreonine agar medium, T1 seed screen
From the text: Using the vacuum infiltration method of Bent et al. (1994), L-O-methylthreonine-sensitive Arabidopsis thaliana Columbia wild type were transformed with pCM35S-omr1. Ten pots, each with 3-4 plants, were transformed and T1 seeds were harvested from the To transformed plants of each pot separately. […] In a crowded plate, it is possible to identify the transformants by looking at the bottom of the plate, the transformants show root growth while the nontransformants will have none. After three weeks of growth in the 0.2 mM L-O-methylthreonine agar medium, each of the 5 positive transformants was transferred to soil, kept separately and allowed to self-fertilize to produce the T2 seed.

[5] = test system: E. coli prototroph host DH5α; assay: Growth of E. coli DH5α on minimal medium supplemented with L-O-methylthreonine (second complementation experiment); type: cell-based
Procedure: In the second complementation experiment, the E. coli prototroph host DH5α was transformed with pTrc-td23 or pUCK-td23 and plated on minimal medium supplemented with varying concentrations of the toxic analog L-O-methylthreonine. Both of the constructs were able to confer upon DH5α resistance to 30 μM L-O-methylthreonine. […] Therefore omr1 provides a new environmentally friendly selectable marker for genetic transformation of bacteria.

manmalian cell cultures = details: by inhibiting incorporation of Ile into proteins; Rabinovitz et al. 1955; cited from earlier work

SMILES | resistance of TD activity to feedback inhibition by Ile, GM11b extracts versus wild type extracts [1] | T2 seedlings resistant to L-O-methylthreonine [2] [%] | concentration known to completely inhibit the growth of wild type seedlings beyond the cotyledonous stage [3] [mM] | appearance of nontransformed seedlings after emergence of the cotyledons [4] | L-O-methylthreonine concentration to which resistance was conferred ([5]; DH5α transformed with pTrc-td23 or pUCK-td23 (omr1), minimal medium) [µM] | growth of bacterial colonies on plates with L-O-methylthreonine ([5]; untransformed DH5α, minimal medium supplemented with varying concentrations of L-O-methylthreonine) | effect on growth of mammalian cell cultures (manmalian cell cultures)
CC[C@H](C)[C@H](N)C(=O)O [Ile, isoleucine] | about 50 fold | – | – | – | – | – | –
CO[C@H](C)[C@H](N)C(=O)O [L-O-methylthreonine] | – | ≥ 75 | 0.2 | completely bleached | 30 | No bacterial colonies grew | inhibits growth
